Test results published in publication PMC5063400, “A Natural Mutation in Helix 5 of the Ligand Binding Domain of Glucocorticoid Receptor Enhances Receptor-Ligand Interaction” (PLoS ONE, 2016).
Numbering of substitutions follows the chain as printed. “Also recorded” adds a separate entry of the source. Like-named read-outs stand apart in the source and are kept apart here.

How the values were obtained:
[1] = target: T1, porcine GR Val610 (mutant) (Sus scrofa, UniProt Q9N1U3); test: Transactivation assay (MMTV-luciferase reporter) in Cos-7 cells, mutant Val610 GR
T1 sequence (Q9N1U3 1-782): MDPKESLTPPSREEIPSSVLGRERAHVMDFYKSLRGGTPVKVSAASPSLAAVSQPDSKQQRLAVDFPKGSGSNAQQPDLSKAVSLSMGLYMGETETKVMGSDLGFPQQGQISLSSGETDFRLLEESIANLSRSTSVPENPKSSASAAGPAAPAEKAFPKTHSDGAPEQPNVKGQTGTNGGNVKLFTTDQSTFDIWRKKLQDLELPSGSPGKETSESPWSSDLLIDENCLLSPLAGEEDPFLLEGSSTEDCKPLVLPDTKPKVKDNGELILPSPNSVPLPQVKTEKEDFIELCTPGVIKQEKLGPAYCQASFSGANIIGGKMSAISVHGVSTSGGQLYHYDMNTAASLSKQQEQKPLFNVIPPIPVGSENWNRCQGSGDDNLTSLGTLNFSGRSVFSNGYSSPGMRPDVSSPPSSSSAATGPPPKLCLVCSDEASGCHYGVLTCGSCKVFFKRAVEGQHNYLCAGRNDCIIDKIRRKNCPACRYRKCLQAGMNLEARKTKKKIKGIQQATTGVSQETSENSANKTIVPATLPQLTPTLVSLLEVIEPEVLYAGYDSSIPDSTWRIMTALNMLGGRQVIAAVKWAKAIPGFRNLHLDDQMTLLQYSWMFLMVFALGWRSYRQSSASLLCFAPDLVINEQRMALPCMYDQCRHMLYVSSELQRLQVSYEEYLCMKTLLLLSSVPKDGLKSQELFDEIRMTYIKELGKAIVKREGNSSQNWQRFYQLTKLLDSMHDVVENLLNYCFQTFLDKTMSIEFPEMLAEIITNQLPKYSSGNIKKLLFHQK
Description: Porcine GR expression plasmids (pCMV-GRA610 or pCMV-GRV610) harboring the SNP NR3C1 c.1829C>T (causing the Ala610Val substitution) were used for a transactivation assay in Cos-7 cells as previously described [13]. In brief, monkey kidney Cos-7 cells were seeded in 96-well plates at a density of 2.5×10^4 cells/well in DMEM (Invitrogen, Karlsruhe, Germany) with 10% FCS. Twenty-four hours after seeding, cells were co-transfected with 200 ng of expression vector, 100 ng of pGL4.36 reporter (Promega, Mannheim, Germany) and 2 ng of pRL-SV40 plasmid (Promega) according to the Lipofectamine 2000 protocol (Invitrogen). The reporter plasmid pGL4.36 expresses firefly luciferase under control of the glucocorticoid-inducible MMTV (Murine Mammary Tumor Virus Long Terminal repeat) promoter while the pRL-SV40 vector constitutively expresses the Renilla luciferase and was used to normalize for transfection efficiency. […] Therefore, cell media was replaced by DMEM supplemented with respective steroid concentrations and 10% charcoal-stripped FCS (PAA Laboratories, Coelbe, Germany). Twenty-four hours after stimulation, firefly and Renilla luciferase activities were measured using the Dual-Glo Luciferase Assay System (Promega) in a DTX 880 Multimode Detector (Beckman Coulter, Krefeld, Germany).

[2] = target: T2, porcine GR Ala610 (wild-type) (Sus scrofa, UniProt Q9N1U3, V610A); test: Transactivation assay (MMTV-luciferase reporter) in Cos-7 cells, wild-type Ala610 GR; type: cell-based; details: for EC50: Cos-7 cells
T2 construct: expressed in transfected cells; host or cells: Cos-7
T2 sequence (Q9N1U3 1-782 V610A): T1 sequence (Q9N1U3 1-782) with V610A
Description: Porcine GR expression plasmids (pCMV-GRA610 or pCMV-GRV610) harboring the SNP NR3C1 c.1829C>T (causing the Ala610Val substitution) were used for a transactivation assay in Cos-7 cells as previously described. In brief, monkey kidney Cos-7 cells were seeded in 96-well plates at a density of 2.5×10^4 cells/well in DMEM (Invitrogen, Karlsruhe, Germany) with 10% FCS. Twenty-four hours after seeding, cells were co-transfected with 200 ng of expression vector, 100 ng of pGL4.36 reporter (Promega, Mannheim, Germany) and 2 ng of pRL-SV40 plasmid (Promega) according to the Lipofectamine 2000 protocol (Invitrogen). The reporter plasmid pGL4.36 expresses firefly luciferase under control of the glucocorticoid-inducible MMTV (Murine Mammary Tumor Virus Long Terminal repeat) promoter while the pRL-SV40 vector constitutively expresses the Renilla luciferase and was used to normalize for transfection efficiency. […] Therefore, cell media was replaced by DMEM supplemented with respective steroid concentrations and 10% charcoal-stripped FCS (PAA Laboratories, Coelbe, Germany). Twenty-four hours after stimulation, firefly and Renilla luciferase activities were measured using the Dual-Glo Luciferase Assay System (Promega) in a DTX 880 Multimode Detector (Beckman Coulter, Krefeld, Germany).
Transcript abundance was corrected for the copy number of expression plasmid.
For all steroids except testosterone, two separate experiments were performed in triplicate. Data were adjusted for transfection efficiency and the resulting luciferase ratios were normalized to cells that were treated with ethanol only. Fold-changes of transcriptional activity were compared using a generalized mixed linear model including fixed effects of genotype, hormone concentration, and the interaction of the two. Data were analyzed using SAS V9.3 software (SAS Institute, Cary, NC, USA). Least-square means were compared at each concentration and p-values were adjusted by Dunnett’s post-hoc test. Fold-change values were further adjusted to maximum relative luciferase induction and dose-response curves, EC50, and significance of EC50 differences were estimated using dose-response equation of GraphPad Prism 5 (GraphPad Software Inc, San Diego, CA).

Ala610 GR [3] = target: T3, Ala610 GR (Sus scrofa, UniProt Q9N1U3, V610A); details: [3H]-dexamethasone, pituitary cytosol, homozygous wild-type
T3 sequence (Q9N1U3 whole entry V610A): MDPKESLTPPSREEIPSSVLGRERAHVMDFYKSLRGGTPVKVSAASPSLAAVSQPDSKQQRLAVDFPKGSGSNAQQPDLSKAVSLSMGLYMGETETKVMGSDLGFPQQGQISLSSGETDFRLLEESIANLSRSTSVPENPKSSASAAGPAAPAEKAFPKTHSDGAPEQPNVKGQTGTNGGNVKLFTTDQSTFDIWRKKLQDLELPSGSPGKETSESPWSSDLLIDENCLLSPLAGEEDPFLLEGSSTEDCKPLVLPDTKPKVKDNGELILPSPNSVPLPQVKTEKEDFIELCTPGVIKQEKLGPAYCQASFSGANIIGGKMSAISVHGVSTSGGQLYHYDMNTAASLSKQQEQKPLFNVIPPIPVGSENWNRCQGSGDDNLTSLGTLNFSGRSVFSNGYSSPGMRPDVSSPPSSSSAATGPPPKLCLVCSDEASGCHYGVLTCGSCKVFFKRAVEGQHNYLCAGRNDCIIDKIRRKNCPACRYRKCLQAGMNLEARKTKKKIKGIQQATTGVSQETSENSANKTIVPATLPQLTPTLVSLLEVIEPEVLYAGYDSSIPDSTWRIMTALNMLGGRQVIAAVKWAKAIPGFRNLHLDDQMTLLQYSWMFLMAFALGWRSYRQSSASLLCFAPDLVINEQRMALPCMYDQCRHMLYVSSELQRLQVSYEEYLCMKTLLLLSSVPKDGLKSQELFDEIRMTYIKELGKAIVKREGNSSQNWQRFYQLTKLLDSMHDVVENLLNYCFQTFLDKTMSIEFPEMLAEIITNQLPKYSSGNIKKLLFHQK
Description: (§1) Pituitary glands were quickly removed from pigs after electronarcotization and exsanguination, snap-frozen, and stored at -80°C. […] Nine pools per genotype, each containing two to three samples, were analyzed. In total 40 pituitaries were used. Pituitaries from homozygous carriers of the alternative variant were not available due to its low frequency.
(§2) GR binding analysis was performed on the pooled samples as previously described. Briefly, tissues were homogenized in ice-cold 10 mM Tris-HCl buffer, pH 7.5, containing 12.5 mM EDTA, 10 mM sodium molybdate, […] sucrose, and 5 mM dithiothreitol using an electric homogenizer (Ultra-Turrax, IKA, Staufen, Germany). The homogenate was centrifuged at 120,000 × g for 60 min at 0–4°C to isolate cytosol (supernatant fraction). […] Non-specific binding was determined with a parallel incubation containing 500-fold excess of RU 28362 (kindly donated by Roussel Uclaf, France), which binds selectively to GR. The separation of bound from free ligand was performed by precipitation with dextran-coated charcoal and the receptor-[^3H]-steroid complexes were counted in the Tri-Carb 2900TR scintillation counter at 50% efficiency. Protein concentrations for each pool were determined with bovine serum albumin as a standard. Binding values were corrected for the amount of protein input. Individual binding curves for each pool were fitted using GraphPad Prism 5 as described above. Resulting KD and Bmax values were compared between genotypes using a mixed linear model implemented in SAS. The model included the effect of genotype and experimental batch.

AlaVal610 GR = AlaVal610 GR (Sus scrofa, UniProt Q9N1U3); details: pituitary cytosol
Description: as §1, §2

Ala610 GR [4] = target: T3, Ala610 GR; details: [3H]-dexamethasone, whole Cos-7 cells, mean ± SE
Description: (§3) A whole-cell GR binding assay was adapted from the protocol previously described for peripheral blood mononuclear cells (PBMC). Cos-7 cells were seeded in 10-cm dishes and T75 flasks at a density of 1.75x10^5 cells/mL. After 24 hours in culture, cells were transfected with pCMV-GRA610 or pCMV-GRV610 using either 10 μg plasmid and 50 μL Fugene HD (Promega) for dishes or 15 μg plasmid and 75 μL Fugene HD for flasks. After another 24 hours in culture, media were replaced with serum-free DMEM to avoid contamination with steroids. One day later cells were pelleted, washed with PBS, and resuspended in DMEM supplemented with 10 mM HEPES buffer. […] After incubation, cells were washed with ice-cold PBS and centrifuged (10 min, 400 × g, 4°C) three times. Cell pellets were then resuspended in 100 μL PBS and mixed with 3 mL scintillation fluid (Rotiszint eco plus, Carl Roth GmbH, Karlsruhe, Germany). Radioactivity was measured in a spectral liquid scintillation counter (Tri-Carb 2900TR, Perkin Elmer Inc., USA) at 50% efficiency. The experiment was performed three times.
(§4) Saturation binding analysis included in nonlinear regression models implemented in GraphPad Prism 5 was used to fit binding curves to estimate the dissociation constant (KD, mean ± SE), maximum specific binding (Bmax, mean ± SE), and differences in these values dependent upon GR genotype.

GFP-tagged Ala610 GR = GFP-tagged Ala610 GR (Sus scrofa, UniProt Q9N1U3, V610A); details: Cos-7 cells, after stimulation with dexamethasone
Chain of GFP-tagged Ala610 GR (Q9N1U3 whole entry V610A, the tested form may be a part): as the sequence (Q9N1U3 whole entry V610A) above
Text: (§5) Green fluorescent protein (GFP)-tagged expression vectors were generated to track subcellular distribution and movement of both GR variants. In brief, the EGFP region was amplified from EGFP-N1 (Clontech, Heidelberg, Germany), using primers EGFP_N_fw and EGFP_N_rev (Table 1) and the proofreading PrimeSTAR HS DNA Polymerase (MoBiTec, Göttingen, Germany). The product was inserted into the pCMV-Tag1 vector (Agilent Technologies, Waldbronn, Germany) using NotI restriction sites. The resulting plasmid was further digested with BamHI and BglII restriction enzymes to insert BclI digested GR-alpha fragments. Therefore, GR-alpha fragments were amplified using cDNA of two individuals homozygous for the c.1829C>T SNP with primers GR_N-Flag_fw2 and GR_N-Flag_rev (Table 1). […]
(§6) Cos-7 cells were seeded in culture dishes (Greiner Bio-One, Frickenhausen, Germany) or 8-well chamber slides (VWR International, Hannover, Germany) for live cell imaging at a density of 1.6x10^5 cells/mL in DMEM with 10% FCS and transfected one day later with pCMV-GFP-GRA610 or pCMV-GFP-GRV610 using a Lipofectamine:DNA-ratio of 3:1. […] Before visualization by microscopy, media were replaced with phenol red-free DMEM supplemented with 5% charcoal stripped FCS, and the dish or slide to be analyzed was placed in a microscope incubator at 37°C and 5% CO2.

GFP-tagged Val610 GR = GFP-tagged Val610 GR (Sus scrofa, UniProt Q9N1U3); details: Cos-7 cells, after stimulation with dexamethasone
Text: as §5, §6

Val610 GR = Val610 GR (Sus scrofa, UniProt Q9N1U3); test: cell-based
Description: as §3, §4

[5] = wide concentration range 0.01 nM to 10 μM, 24 h stimulation

C[C@]12CC[C@H]3[C@@H](CCC4=CC(=O)CC[C@@]43C)[C@@H]1CC[C@@H]2O [testosterone]
activation of the MMTV-driven luciferase reporter ([1]; Val610 GR, data not shown): unable to activate; also recorded: remained insensitive | activation of the MMTV-driven luciferase reporter ([2]; data not shown): unable to activate

C[C@]12CCC(=O)C=C1CC[C@@H]1[C@@H]2[C@@H](O)C[C@@]2(C)[C@H]1CC[C@]2(O)C(=O)CO [cortisol]
EC50 [1]: 36.5 nM | EC50 ([1]; EC50 of transactivation, Val610 GR, Cos-7 cells, narrow concentration range): 22.9 nM | EC50 ([2]; narrow concentration range): 37.2 nM | EC50 [2, 5]: 44.7 nM

C[C@@H]1C[C@H]2[C@@H]3CCC4=CC(=O)C=C[C@]4(C)[C@@]3(F)[C@@H](O)C[C@]2(C)[C@@]1(O)C(=O)CO [dexamethasone]
Bmax (Ala610 GR [3]): 62.2 ± 5.9 fmol/mg protein | Kd (AlaVal610 GR; [3H]-dexamethasone 0.2 to 24 nM, heterozygous carriers): 0.529 ± 0.068 nM | Bmax (AlaVal610 GR; [3H]-dexamethasone, heterozygous carriers): 63.4 ± 5.0 fmol/mg protein | increased affinity of heterozygous carriers compared to wild-type controls (AlaVal610 GR): 1.7 fold | Bmax (maximum specific binding) (Ala610 GR [4]): 1479 ± 79.7 fmol/mL | time to full translocation into the nucleus (GFP-tagged Ala610 GR): ≤ 15 min | time to full translocation into the nucleus (GFP-tagged Val610 GR): ≤ 15 min | Kd (Val610 GR): 6.08 nM | Bmax (maximum specific binding) (Val610 GR; [3H]-dexamethasone, whole Cos-7 cells, mean ± SE): 1204 ± 118.1 fmol/mL

C[C@]12CCC(=O)C=C1CC[C@@H]1[C@@H]2[C@@H](O)C[C@]2(C=O)[C@@H](C(=O)CO)CC[C@@H]12 [aldosterone]
EC50 [1]: 50.6 nM | EC50 [2, 5]: 161 nM
